Results reported in PMC9108036 (Biomedicine & Pharmacotherapy, 2022).

Test system: lentiviral pseudovirus with SARS-CoV-2 spike D614G
Format: cell-based

| SMILES | maximum response (inhibition) | IC50 | inhibition of virus entry (in words) |
| --- | --- | --- | --- |
| N=C(N)c1ccc2cc(OC(=O)c3ccc(N=C(N)N)cc3)ccc2c1 [Nafamostat] | 50% |  |  |
| O=c1[nH]cc(F)c(=O)[nH]1 [Fluorouracil] |  | 7.01 µM |  |
| Nc1nc(Cl)nc2c1ncn2[C@H]1C[C@H](O)[C@@H](CO)O1 [Cladribine] |  | 7.74 µM |  |
| CCCCC[C@H](O)/C=C/[C@H]1[C@H](O)CC(=O)[C@@H]1CCCCCCC(=O)O [Alprostadil] |  | 7.42 µM |  |
| CN(C)C(=O)COC(=O)Cc1ccc(OC(=O)c2ccc(NC(=N)N)cc2)cc1 [Camostat] | 50% |  | failed to inhibit virus entry sufficiently |
| CN(C)CCCN1c2ccccc2Sc2ccc(Cl)cc21 [Chlorpromazine] |  | 9.63 µM |  |
| CC(=O)O[C@@]12CO[C@@H]1C[C@H](O)[C@@]1(C)C(=O)[C@H](O)C3=C(C)[C@@H](OC(=O)[C@H](O)[C@@H](NC(=O)OC(C)(C)C)c4ccccc4)C[C@@](O)([C@@H](OC(=O)c4ccccc4)[C@H]21)C3(C)C [Docetaxel] |  | < 0.08 µM |  |
